Data taken from ChEMBL document CHEMBL3352576, “Synthesis and antitumor activities of novel hybrid molecules containing 1,3,4-oxadiazole and 1,3,4-thiadiazole bearing Schiff base moiety” (Bioorg Med Chem Lett, 2014).

Experiments:
Assay type in all cases: functional, cell-based
[1] = Antiproliferative activity against human SMMC7721 cells assessed as inhibition of cell proliferation by CCK8 assay; details: SMMC-7721
[2] = system: A549; test: Antiproliferative activity against human A549 cells assessed as inhibition of cell proliferation by CCK8 assay
[3] = system: MCF7; test: Antiproliferative activity against human MCF7 cells assessed as inhibition of cell proliferation by CCK8 assay

SMILES	IC50 [1] [µM]	IC50 [2] [µM]	IC50 [3] [µM]
O=c1[nH]cc(F)c(=O)[nH]1 [FLUOROURACIL]	5.62	8.13	–
Oc1ccccc1/C=N/c1nnc(SCc2nnc(-c3ccc(Cl)cc3)o2)s1	2.84	30.1	7.55
COc1cc(-c2nnc(CSc3nnc(/N=C/c4ccccc4O)s3)o2)cc(OC)c1OC	7.6	6.55	7.95
Cc1cccc(-c2nnc(CSc3nnc(/N=C/c4ccccc4O)s3)o2)c1	4.55	24.3	11.6
O=[N+]([O-])c1cccc(-c2nnc(CSc3nnc(/N=C/c4ccccc4O)s3)o2)c1	15.7	36.9	13.9
Cc1ccccc1-c1nnc(CSc2nnc(/N=C/c3ccccc3O)s2)o1	15.5	7.85	9.36
Oc1ccccc1/C=N/c1nnc(SCc2nnc(-c3ccc(F)cc3)o2)s1	13.1	20.1	15.6
Cc1ccc(-c2nnc(CSc3nnc(/N=C/c4ccccc4O)s3)o2)cc1	37.1	22	8.75
Oc1ccccc1/C=N/c1nnc(SCc2nnc(-c3ccccc3Cl)o2)s1	31.8	18.1	18.1
Oc1ccccc1/C=N/c1nnc(SCc2nnc(-c3ccc(Br)cc3)o2)s1	18	20	8.32
Oc1ccccc1/C=N/c1nnc(SCc2nnc(-c3ccccc3Br)o2)s1	6.78	7.15	9.14
COc1cccc(-c2nnc(CSc3nnc(/N=C/c4ccccc4O)s3)o2)c1	4.34	8.82	22
O=[N+]([O-])c1ccc(-c2nnc(CSc3nnc(/N=C/c4ccccc4O)s3)o2)cc1	16.9	4.13	4.25
Oc1ccccc1/C=N/c1nnc(SCc2nnc(-c3ccccc3)o2)s1	7.1	4.11	9.76
COc1ccc(-c2nnc(CSc3nnc(/N=C/c4ccccc4O)s3)o2)cc1	10	20.3	4.56
